{"source": "patent US20080152641A1", "about": "“Inhibitors of Siderophore Biosynthesis in Fungi” (Autria Wirtschaftsservice, priority 2004, published 2008)", "assay_type_in_all_cases": "cell-based, Aspergillus fumigatus", "key": {"[1]": {"system": "ΔsidACEA17", "assay": "Conidia production of ΔsidACEA17", "conditions": "without supplement 99% decrease", "procedure": "(§1) FIG. 3: A. Growth phenotypes of wild type and mutant strains. […] 10^4 conidia of the respective strain were point-inoculated on AMM plates containing the respective iron source, and incubated for 48 h at 37° C. Blood agar was AMM containing 5% sheep blood.\n(§2) To elucidate the role of sidA a gene deletion mutant from CEA17 by replacement with pyrG was constructed (Weidner (1998), loc. cit.)."}, "[2]": {"system": "ΔAf-sidA, OMO-deficient A. fumigatus strain", "assay": "Radial growth of siderophore-negative ΔAf-sidA on Aspergillus minimal medium plates", "excerpt": "As is described in the appended Examples below, to elucidate the function of Af-sidA, a deletion mutant for this gene was constructed. In the generated mutant allele of ΔAf-sidA, the entire coding region, 279 bp downstream and 137 bp upstream region of the gene was replaced by the hygromycine resistance (hph) marker. […] Consistent with reductive iron assimilation being responsible for the residual growth of ΔAf-sidA, the use of copper-deficient media or the addition of the copper-specific chelator bathocuproine disulfonic acid in a concentration of 30 μM decreased the radial growth rate of ΔAf-sidA 46% and 25% compared to the wt. The growth of ΔAf-sidA was increased to 84% and 99% by supplementation with 1.5 mM FeSO4 and 10 μM ferricrocin, respectively.\nas §1"}, "[3]": {"system": "Δat2", "assay": "Radial growth of Δat2 in the presence of BPS", "conditions": "iron depleted conditions, BPS 200 μM, radial growth at 48 h", "procedure": "as §1\n(§3) FIG. 12: Growth phenotypes of wild type and Δat1, ΔsidD and Δat2 mutant strains. Growth assays were performed during iron replete conditions (+Fe, 10 μM FeSO4), iron depleted conditions (−Fe), iron depleted conditions in the presence of bathophenantroline-disulfonate (BPS, 200 μM) and on blood agar (blood) as described in FIG. 3, radial growth was scored at 48 h.\n(§4) Bathophenantroline-disulfonic acid is an inhibitor of the reductive iron assimilatory system and the iron contained in blood agar cannot be readily used by the reductive iron assimilatory system."}, "[4]": {"system": "Δat1", "assay": "Radial growth of Δat1 in the presence of BPS", "conditions": "iron depleted conditions, BPS 200 μM, radial growth at 48 h", "procedure": "as §1, §3, §4"}, "[5]": {"system": "ΔsidD", "assay": "Radial growth of ΔsidD in the presence of BPS", "conditions": "iron depleted conditions, BPS 200 μM, radial growth at 48 h", "procedure": "as §1, §3, §4"}, "[6]": {"system": "ΔsidACEA17", "assay": "Growth sensitivity of ΔsidACEA17 to ferrous iron chelator", "procedure": "as §1, §2"}, "[7]": {"system": "ΔsidA/ΔftrACEA17", "assay": "Growth of double mutant ΔsidA/ΔftrACEA17 on different iron sources", "conditions": "for growth promotion of ΔsidA/ΔftrACEA17: high amounts; for growth of ΔsidA/ΔftrACEA17 on host iron compound as sole iron source: 10 μM as the sole iron source", "procedure": "10^4 conidia of the respective strain were point-inoculated on AMM plates containing the respective iron source, and incubated for 48 h at 37° C. Blood agar was AMM containing 5% sheep blood.\nTo analyze the potential role of FtrA in iron uptake of A. fumigatus we deleted the encoding gene in ΔsidACEA17 by replacement with the hygromycin resistance (hph) marker (Punt (1987), loc. cit.)."}}, "note": "Square brackets hold non-standard residues; d marks the D form. Peptide text beside a SMILES is read from it. Orn(N5-OH,N5-Ac) = CC(=O)N(O)CCC[C@H](N)C(=O)O", "data": [{"molecule": "O=S(=O)([O-])[O-].[Fe+2]", "note": "[FeSO4]", "values": [{"measurement": "conidia production of ΔsidACEA17", "setting": "[1]; supplementation with 1.5 mM", "result": 35, "unit": "%"}, {"measurement": "growth of ΔAf-sidA compared to the wt", "setting": "[2]; supplementation with 1.5 mM", "result": 84, "unit": "%"}]}, {"molecule": "Cc1cc(-c2ccc(S(=O)(=O)O)cc2)c2ccc3c(-c4ccc(S(=O)(=O)O)cc4)cc(C)nc3c2n1", "note": "[bathocuproine disulfonic acid]", "values": [{"measurement": "radial growth rate of ΔAf-sidA compared to the wt", "setting": "[2]; addition of chelator at 30 μM", "result": 25, "unit": "%"}]}, {"molecule": "O=S(=O)(O)c1ccc(-c2ccnc3c2ccc2c(-c4ccc(S(=O)(=O)O)cc4)ccnc23)cc1", "note": "[bathophenantroline disulfonate, bathophenanthroline disulfonic acid]", "values": [{"measurement": "growth rate of Δat2", "setting": "[3]", "result": "wild type growth rate"}, {"measurement": "growth rate of Δat1", "setting": "[4]", "result": "decreased growth rate"}, {"measurement": "growth rate of ΔsidD", "setting": "[5]", "result": "decreased growth rate"}, {"measurement": "sensitivity of ΔsidACEA17 to chelator", "setting": "[6]", "result": "increased sensitivity"}, {"measurement": "growth of siderophore negative A fumigatus (FIG. 7)", "setting": "[2]", "result": "Growth inhibition"}]}, {"molecule": "[Cl][Fe]([Cl])[Cl]", "note": "[ferric iron]", "values": [{"measurement": "growth promotion of ΔsidA/ΔftrACEA17", "setting": "[7]", "result": "not"}]}, {"molecule": "CC(=O)N([O-])CCC[C@@H]1NC(=O)CNC(=O)[C@H](CO)NC(=O)CNC(=O)[C@H](CCCN([O-])C(C)=O)NC(=O)[C@H](CCCN([O-])C(C)=O)NC1=O.[Fe+3]", "note": "[ferricrocin] (cyclo(GSG[Orn(N5-OH,N5-Ac)][Orn(N5-OH,N5-Ac)][Orn(N5-OH,N5-Ac)]))", "values": [{"measurement": "growth of ΔsidA/ΔftrACEA17 with siderophore in growth medium", "setting": "[7]", "result": "unable to grow unless the growth medium contained ferricrocin"}, {"measurement": "conidia production of ΔsidACEA17", "setting": "[1]; supplementation with 10 μM", "result": 125, "unit": "%"}, {"measurement": "antagonism of growth inhibition by BPS and blood (FIG. 7)", "setting": "[2]", "result": "antagonist action"}, {"measurement": "growth of ΔAf-sidA compared to the wt", "setting": "[2]; supplementation with 10 μM", "result": 99, "unit": "%"}]}, {"molecule": "[Fe+2]", "note": "[ferrous iron]", "values": [{"measurement": "growth promotion of ΔsidA/ΔftrACEA17", "setting": "[7]", "result": "slight growth promotion"}]}, {"molecule": "hemin", "values": [{"measurement": "growth of ΔsidA/ΔftrACEA17 on host iron compound as sole iron source", "setting": "[7]", "result": "failed to grow"}]}, {"molecule": "holotransferrin: host iron compound tested as sole iron source", "values": [{"measurement": "growth of ΔsidA/ΔftrACEA17 on host iron compound as sole iron source", "setting": "[7]", "result": "failed to grow"}]}, {"molecule": "iron chloride", "values": [{"measurement": "conidia production of ΔsidACEA17", "setting": "[1]; supplementation with 1.5 mM", "result": 35, "unit": "%"}]}]}
